In assay [1] the target is Glutamate receptor ionotropic, NMDA 1 (Rattus norvegicus, UniProt P35439).
In assay [2] the target is Delta-type opioid receptor (Homo sapiens, UniProt P41143).
Assay [3] has as its target cGMP-inhibited 3',5'-cyclic phosphodiesterase 3A (Homo sapiens, UniProt Q14432). The assay is classed as functional.
Assay [4] addresses T1, 5-hydroxytryptamine receptor 2C (Homo sapiens, UniProt P28335).
T1 sequence (P28335 whole entry): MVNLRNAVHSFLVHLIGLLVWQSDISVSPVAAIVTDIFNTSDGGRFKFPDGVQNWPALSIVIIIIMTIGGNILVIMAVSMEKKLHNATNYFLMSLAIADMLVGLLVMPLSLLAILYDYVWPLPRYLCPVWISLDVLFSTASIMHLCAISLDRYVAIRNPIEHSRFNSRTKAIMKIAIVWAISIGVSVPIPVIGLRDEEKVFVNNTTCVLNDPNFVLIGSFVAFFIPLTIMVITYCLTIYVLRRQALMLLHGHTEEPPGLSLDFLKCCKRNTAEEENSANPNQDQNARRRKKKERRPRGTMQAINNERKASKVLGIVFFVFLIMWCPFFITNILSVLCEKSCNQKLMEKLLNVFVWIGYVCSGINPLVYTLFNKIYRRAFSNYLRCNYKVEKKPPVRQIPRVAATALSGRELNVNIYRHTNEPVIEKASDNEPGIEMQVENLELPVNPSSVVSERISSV

The next assay deals with T2, B2 bradykinin receptor (Homo sapiens, UniProt P30411).
T2 sequence (P30411 whole entry): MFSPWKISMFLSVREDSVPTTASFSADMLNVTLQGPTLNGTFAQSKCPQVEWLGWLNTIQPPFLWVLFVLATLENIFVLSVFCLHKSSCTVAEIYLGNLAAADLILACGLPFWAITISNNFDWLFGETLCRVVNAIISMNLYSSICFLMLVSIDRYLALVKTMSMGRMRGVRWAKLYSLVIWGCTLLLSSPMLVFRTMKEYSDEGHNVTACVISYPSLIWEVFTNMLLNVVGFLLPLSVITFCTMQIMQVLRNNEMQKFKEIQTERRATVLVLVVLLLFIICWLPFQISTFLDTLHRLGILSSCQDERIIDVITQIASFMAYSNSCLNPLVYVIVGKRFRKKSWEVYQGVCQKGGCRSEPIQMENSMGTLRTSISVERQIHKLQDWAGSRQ

The next assay deals with D(3) dopamine receptor (Homo sapiens, UniProt P35462).
D(3) dopamine receptor, sequence (P35462 whole entry): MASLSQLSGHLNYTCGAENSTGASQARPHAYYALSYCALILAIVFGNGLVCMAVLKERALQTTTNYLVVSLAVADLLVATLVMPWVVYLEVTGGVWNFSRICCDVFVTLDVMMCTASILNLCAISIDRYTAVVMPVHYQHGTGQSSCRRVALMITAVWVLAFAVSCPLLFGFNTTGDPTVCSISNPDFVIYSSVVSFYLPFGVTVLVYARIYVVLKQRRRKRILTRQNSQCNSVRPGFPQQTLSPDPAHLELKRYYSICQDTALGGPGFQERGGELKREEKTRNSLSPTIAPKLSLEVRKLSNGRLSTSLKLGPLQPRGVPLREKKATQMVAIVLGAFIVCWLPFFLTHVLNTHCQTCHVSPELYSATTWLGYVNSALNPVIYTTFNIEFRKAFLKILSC
In assay [5] the target is Sodium-dependent dopamine transporter (Homo sapiens, UniProt Q01959).
Sodium-dependent dopamine transporter, sequence (Q01959 whole entry): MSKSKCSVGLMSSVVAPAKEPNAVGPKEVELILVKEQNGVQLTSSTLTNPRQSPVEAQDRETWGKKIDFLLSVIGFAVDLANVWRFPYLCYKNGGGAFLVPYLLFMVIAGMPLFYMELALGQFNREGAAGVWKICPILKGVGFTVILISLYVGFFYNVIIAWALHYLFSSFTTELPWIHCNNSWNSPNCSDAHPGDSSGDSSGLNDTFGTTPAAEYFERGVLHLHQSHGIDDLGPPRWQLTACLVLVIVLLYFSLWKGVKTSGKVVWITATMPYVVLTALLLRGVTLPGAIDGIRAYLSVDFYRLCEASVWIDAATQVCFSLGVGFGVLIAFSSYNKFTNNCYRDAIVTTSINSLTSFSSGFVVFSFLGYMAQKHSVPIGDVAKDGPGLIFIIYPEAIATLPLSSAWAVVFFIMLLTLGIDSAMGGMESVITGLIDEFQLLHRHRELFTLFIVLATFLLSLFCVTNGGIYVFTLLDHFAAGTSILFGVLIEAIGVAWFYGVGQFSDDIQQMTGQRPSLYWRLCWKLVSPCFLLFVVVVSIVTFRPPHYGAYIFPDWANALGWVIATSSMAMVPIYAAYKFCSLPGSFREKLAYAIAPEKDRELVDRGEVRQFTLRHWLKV
The target in assay [6] is T3, Cholecystokinin receptor type A (Homo sapiens, UniProt P32238).
T3 sequence (P32238 whole entry): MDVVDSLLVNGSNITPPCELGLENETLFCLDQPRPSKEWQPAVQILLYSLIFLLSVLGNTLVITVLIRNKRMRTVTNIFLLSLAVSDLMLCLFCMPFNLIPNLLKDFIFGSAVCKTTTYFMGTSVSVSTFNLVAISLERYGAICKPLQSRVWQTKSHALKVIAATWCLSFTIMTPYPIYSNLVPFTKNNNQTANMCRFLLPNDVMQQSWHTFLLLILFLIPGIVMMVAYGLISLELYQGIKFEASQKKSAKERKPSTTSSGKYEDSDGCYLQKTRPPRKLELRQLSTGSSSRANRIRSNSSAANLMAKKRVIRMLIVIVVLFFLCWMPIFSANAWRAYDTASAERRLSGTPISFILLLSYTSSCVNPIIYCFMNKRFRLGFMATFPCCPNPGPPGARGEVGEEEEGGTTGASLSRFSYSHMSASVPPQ

Assay [7] has as its target T4, 5-hydroxytryptamine receptor 3A (Homo sapiens, UniProt P46098).
T4 sequence (P46098 whole entry): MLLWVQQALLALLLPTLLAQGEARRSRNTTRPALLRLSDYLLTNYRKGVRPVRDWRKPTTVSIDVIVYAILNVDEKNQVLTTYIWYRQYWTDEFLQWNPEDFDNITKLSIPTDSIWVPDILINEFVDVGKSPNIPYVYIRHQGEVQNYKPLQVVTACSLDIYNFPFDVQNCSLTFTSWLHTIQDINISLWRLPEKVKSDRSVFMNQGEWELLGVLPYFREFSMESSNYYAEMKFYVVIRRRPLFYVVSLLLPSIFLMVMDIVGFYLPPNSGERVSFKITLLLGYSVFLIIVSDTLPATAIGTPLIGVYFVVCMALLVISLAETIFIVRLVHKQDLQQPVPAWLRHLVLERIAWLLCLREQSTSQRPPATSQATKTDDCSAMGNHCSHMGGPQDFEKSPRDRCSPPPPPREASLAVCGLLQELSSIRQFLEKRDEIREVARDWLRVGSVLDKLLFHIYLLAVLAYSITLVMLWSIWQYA
The assay is classed as functional.

A further assay deals with Vasopressin V2 receptor (Homo sapiens, UniProt P30518).
Vasopressin V2 receptor, sequence (P30518 whole entry): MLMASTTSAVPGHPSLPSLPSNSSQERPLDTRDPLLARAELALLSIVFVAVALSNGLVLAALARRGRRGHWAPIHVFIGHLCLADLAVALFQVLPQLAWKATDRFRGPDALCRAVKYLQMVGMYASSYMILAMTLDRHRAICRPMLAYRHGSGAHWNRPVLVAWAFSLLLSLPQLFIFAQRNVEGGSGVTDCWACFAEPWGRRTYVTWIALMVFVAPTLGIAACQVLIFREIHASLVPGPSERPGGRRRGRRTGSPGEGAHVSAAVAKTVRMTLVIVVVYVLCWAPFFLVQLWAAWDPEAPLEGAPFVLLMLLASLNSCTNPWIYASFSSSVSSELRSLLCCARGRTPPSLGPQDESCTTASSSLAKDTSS
Assay [8] concerns the target T5, Type-1 angiotensin II receptor (Homo sapiens, UniProt P30556).
T5 sequence (P30556 whole entry): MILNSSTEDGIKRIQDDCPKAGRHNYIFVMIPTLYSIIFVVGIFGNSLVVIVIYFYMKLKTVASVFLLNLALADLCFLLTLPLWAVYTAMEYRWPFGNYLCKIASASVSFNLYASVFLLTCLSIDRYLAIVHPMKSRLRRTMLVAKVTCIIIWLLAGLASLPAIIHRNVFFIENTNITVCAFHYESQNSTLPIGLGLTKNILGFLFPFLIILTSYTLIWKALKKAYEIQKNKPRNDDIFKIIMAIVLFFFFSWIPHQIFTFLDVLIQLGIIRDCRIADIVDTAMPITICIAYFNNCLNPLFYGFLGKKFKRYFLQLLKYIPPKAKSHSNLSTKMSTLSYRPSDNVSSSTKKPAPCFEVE

In assay [9] the target is Sodium-dependent noradrenaline transporter (Homo sapiens, UniProt P23975).
Sodium-dependent noradrenaline transporter, sequence (P23975 whole entry): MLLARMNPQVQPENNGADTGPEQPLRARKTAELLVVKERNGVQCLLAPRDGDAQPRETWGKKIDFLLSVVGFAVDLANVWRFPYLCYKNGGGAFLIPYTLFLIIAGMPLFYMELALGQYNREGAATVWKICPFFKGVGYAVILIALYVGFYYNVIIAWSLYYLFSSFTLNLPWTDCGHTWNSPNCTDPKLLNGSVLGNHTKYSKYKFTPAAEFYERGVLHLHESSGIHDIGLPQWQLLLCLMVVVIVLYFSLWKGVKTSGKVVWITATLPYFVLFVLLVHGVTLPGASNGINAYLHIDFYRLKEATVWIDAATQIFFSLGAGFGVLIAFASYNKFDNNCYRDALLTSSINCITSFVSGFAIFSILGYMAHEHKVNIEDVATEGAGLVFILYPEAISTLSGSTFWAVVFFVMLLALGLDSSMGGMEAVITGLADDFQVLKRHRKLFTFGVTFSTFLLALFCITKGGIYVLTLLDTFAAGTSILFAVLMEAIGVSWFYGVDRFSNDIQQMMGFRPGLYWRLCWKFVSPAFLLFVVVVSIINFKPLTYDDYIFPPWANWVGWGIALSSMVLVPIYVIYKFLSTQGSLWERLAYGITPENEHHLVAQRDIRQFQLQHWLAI
For a further assay, the target named is T6, Thromboxane A2 receptor (Homo sapiens, UniProt P21731).
T6 sequence (P21731 whole entry): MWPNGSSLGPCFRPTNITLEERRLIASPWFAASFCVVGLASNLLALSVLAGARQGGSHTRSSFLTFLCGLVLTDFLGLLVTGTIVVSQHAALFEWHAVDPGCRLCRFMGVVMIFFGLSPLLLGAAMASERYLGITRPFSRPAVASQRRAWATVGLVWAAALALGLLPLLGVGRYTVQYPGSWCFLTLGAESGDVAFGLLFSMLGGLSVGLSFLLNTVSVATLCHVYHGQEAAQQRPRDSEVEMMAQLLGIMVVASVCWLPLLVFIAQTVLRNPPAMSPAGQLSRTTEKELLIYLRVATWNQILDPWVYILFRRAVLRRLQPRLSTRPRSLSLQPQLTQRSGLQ

A value given as a limit tells only on which side of the number the result lay.
Also: assay procedure not described here.

cGMP-inhibited 3',5'-cyclic phosphodiesterase 3A, sequence (Q14432 whole entry): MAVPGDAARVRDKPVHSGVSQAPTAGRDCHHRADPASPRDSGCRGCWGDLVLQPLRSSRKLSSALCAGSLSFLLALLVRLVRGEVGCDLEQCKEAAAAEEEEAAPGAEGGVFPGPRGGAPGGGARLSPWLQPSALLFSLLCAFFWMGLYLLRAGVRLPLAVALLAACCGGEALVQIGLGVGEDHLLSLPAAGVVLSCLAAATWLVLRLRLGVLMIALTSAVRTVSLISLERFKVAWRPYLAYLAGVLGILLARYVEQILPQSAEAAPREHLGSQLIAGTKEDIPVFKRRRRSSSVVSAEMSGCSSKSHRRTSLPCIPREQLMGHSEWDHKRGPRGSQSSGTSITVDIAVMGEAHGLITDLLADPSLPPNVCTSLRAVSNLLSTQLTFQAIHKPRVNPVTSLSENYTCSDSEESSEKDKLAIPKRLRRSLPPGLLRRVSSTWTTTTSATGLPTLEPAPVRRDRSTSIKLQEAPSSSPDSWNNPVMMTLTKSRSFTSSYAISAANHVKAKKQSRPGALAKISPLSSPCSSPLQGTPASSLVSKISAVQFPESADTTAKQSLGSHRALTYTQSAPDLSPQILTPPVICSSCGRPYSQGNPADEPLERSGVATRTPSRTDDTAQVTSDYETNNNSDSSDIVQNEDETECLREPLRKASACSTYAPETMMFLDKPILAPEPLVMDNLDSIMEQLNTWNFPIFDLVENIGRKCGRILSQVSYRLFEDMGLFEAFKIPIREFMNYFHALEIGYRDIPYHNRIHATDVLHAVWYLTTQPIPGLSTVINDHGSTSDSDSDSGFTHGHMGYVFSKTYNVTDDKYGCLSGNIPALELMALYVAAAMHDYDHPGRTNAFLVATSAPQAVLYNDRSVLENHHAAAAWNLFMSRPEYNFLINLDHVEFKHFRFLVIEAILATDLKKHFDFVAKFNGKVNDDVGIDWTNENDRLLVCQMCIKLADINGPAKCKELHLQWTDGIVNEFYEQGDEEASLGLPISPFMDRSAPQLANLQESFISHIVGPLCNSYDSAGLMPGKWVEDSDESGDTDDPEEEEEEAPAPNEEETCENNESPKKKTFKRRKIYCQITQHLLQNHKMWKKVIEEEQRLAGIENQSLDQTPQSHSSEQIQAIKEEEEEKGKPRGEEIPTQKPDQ
Delta-type opioid receptor, sequence (P41143 whole entry): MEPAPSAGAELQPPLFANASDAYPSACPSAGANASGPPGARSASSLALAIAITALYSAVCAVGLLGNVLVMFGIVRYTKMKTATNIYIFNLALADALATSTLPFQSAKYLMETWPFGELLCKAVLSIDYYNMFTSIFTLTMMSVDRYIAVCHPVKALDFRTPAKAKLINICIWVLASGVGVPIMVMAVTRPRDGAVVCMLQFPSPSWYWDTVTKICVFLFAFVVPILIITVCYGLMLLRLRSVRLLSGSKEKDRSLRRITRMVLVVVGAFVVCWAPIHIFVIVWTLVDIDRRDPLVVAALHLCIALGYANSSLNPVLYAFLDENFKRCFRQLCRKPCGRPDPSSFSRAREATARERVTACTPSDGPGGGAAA

As to `CCCCC1C(=O)N(c2ccccc2)N(c2ccccc2)C1=O` [PHENYLBUTAZONE], the AC50 in assay [1] is > 10 µM; in assay [2], > 30 µM; in assay [3] it was > 30 µM; in assay [4], > 30 µM; at B2 bradykinin receptor, > 30 µM; on D(3) dopamine receptor it was > 30 µM. Further, the half-maximal activity concentration (AC50) (in assay [5]; in [6]; in assay [7]; at Vasopressin V2 receptor; in [8]; in [9]) was > 30 µM each time. For the same molecule, the AC50 at Thromboxane A2 receptor was > 30 µM.
With `CCCC(CCC)C(N)=O` [VALPROMIDE], the concentration at half-maximal activity (AC50) in assay [1] was > 10 µM; in assay [2], > 30 µM; in [3], > 30 µM; in [4] it was > 30 µM; on B2 bradykinin receptor, > 30 µM; at D(3) dopamine receptor, > 30 µM. The AC50 (in [5]; in assay [6]; in [7]; at Vasopressin V2 receptor; in [8]; in assay [9]) was > 30 µM throughout. Besides, the AC50 at Thromboxane A2 receptor was > 30 µM.
In the case of `CC1OC2(CS1)CN1CCC2CC1` (configuration not stated) [CEVIMELINE], the half-maximal activity concentration (AC50) in assay [1] was > 10 µM; in assay [2], > 30 µM; in [3], > 30 µM; in assay [4], > 30 µM; on B2 bradykinin receptor, > 10 µM; at D(3) dopamine receptor, > 30 µM. In addition, the half-maximal activity concentration (AC50) in assay [5] was > 10 µM; in assay [6] it was > 10 µM; in assay [7], > 30 µM; on Vasopressin V2 receptor it was > 10 µM; in assay [8], > 10 µM; in [9], > 10 µM. Further, at Thromboxane A2 receptor, the half-maximal activity concentration (AC50) was > 10 µM.
On to `CNC1=Nc2ccc(Cl)cc2C(c2ccccc2)=[N+]([O-])C1` [CHLORDIAZEPOXIDE], for which the half-maximal activity concentration (AC50) in [1] was > 10 µM; in assay [2], > 30 µM; in assay [3] it was > 30 µM; in [4], > 30 µM; on B2 bradykinin receptor, > 30 µM; on D(3) dopamine receptor, > 30 µM. Besides, the AC50 (in [5]; in assay [6]; in [7]; at Vasopressin V2 receptor; in [8]; in assay [9]) was > 30 µM in each case. Besides, at Thromboxane A2 receptor, the AC50 was > 30 µM.
On to `CCC(=O)O[C@]1(C(=O)SCF)[C@H](C)C[C@H]2[C@@H]3C[C@H](F)C4=CC(=O)C=C[C@]4(C)[C@@]3(F)[C@@H](O)C[C@@]21C` [FLUTICASONE PROPIONATE], for which the concentration at half-maximal activity (AC50) (in assay [1]; in [2]; in [3]; in assay [4]; on B2 bradykinin receptor; on D(3) dopamine receptor) was > 30 µM throughout. In addition, the AC50 (in [5]; in assay [6]; in [7]; on Vasopressin V2 receptor; in assay [8]; in assay [9]) was > 30 µM throughout. Also, at Thromboxane A2 receptor, the AC50 was > 30 µM.
Regarding `Cc1cc(C(C)(C)C)cc(C)c1CC1=NCCN1` [XYLOMETAZOLINE], the AC50 in assay [1] is > 30 µM; in [2], > 30 µM; in assay [3] it was > 30 µM; in assay [4], 10 µM; on B2 bradykinin receptor it was > 30 µM; on D(3) dopamine receptor, 3.87 µM. Also, the AC50 (in assay [5]; in [6]; in [7]; on Vasopressin V2 receptor; in [8]; in assay [9]) was > 30 µM in each case. Moreover, at Thromboxane A2 receptor, the half-maximal activity concentration (AC50) is > 30 µM.
`CC(CCc1ccc(O)cc1)NCCc1ccc(O)c(O)c1` (configuration not stated) [DOBUTAMINE]: the concentration at half-maximal activity (AC50) is > 30 µM in [1]; > 30 µM in assay [2]; > 30 µM in assay [3]; > 30 µM in assay [4]; > 30 µM at B2 bradykinin receptor; 0.728 µM at D(3) dopamine receptor. Besides, the concentration at half-maximal activity (AC50) in assay [5] was 0.897 µM; in assay [6], > 30 µM; in [7] it was 27 µM; at Vasopressin V2 receptor, > 30 µM; in assay [8] it was > 30 µM; in assay [9], 1.73 µM. At Thromboxane A2 receptor, the concentration at half-maximal activity (AC50) is > 30 µM.
Turning to `CC(C)COCC(CN(Cc1ccccc1)c1ccccc1)N1CCCC1` (configuration not stated) [BEPRIDIL], the AC50 in assay [1] was > 30 µM; in [2] it was > 30 µM; in assay [3], > 30 µM; in assay [4], > 30 µM; at B2 bradykinin receptor, > 30 µM; at D(3) dopamine receptor it was 2.6 µM. Besides, the concentration at half-maximal activity (AC50) in assay [5] is 16.2 µM; in [6] it was 23.2 µM; in assay [7] it was > 30 µM; at Vasopressin V2 receptor it was > 30 µM; in assay [8] it was > 30 µM; in assay [9] it was 21 µM. Moreover, on Thromboxane A2 receptor, the concentration at half-maximal activity (AC50) was > 30 µM.
`Nc1ncn([C@H]2C[C@H](O)[C@@H](CO)O2)c(=O)n1` [DECITABINE]: the AC50 (in assay [1]; in assay [2]; in assay [3]; in [4]; at B2 bradykinin receptor; on D(3) dopamine receptor) was > 30 µM in each case. For the same molecule, the AC50 (in [5]; in assay [6]; in [7]; on Vasopressin V2 receptor; in assay [8]; in assay [9]) was > 30 µM in each case. The concentration at half-maximal activity (AC50) on Thromboxane A2 receptor was > 30 µM.

The term AC50 denotes the concentration giving half of the maximal activity seen. A low value points to greater potency.

The values above are taken from ChEMBL document CHEMBL5291721, “A preclinical secondary pharmacology resource illuminates target-adverse drug reaction associations of marketed drugs” (Nat Commun, 2023).
